Data published in PubChem BioAssay (NCI).
Where “and” joins values, the source holds several entries; their conditions need not be identical. Equal entries are not always repeated.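 Assay format: 96-well plates, 48-hour exposure. GI50 is the concentration that inhibits growth by half. TGI denotes the concentration required for complete inhibition of growth.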

How the values were obtained:
Experiment in all cases: growth of human tumour cells (NCI), 48 h
786-0 renal = tested on: 786-0 renal
SF-539 CNS = tested on: SF-539 CNS
OVCAR-3 ovarian = tested on: OVCAR-3 ovarian
SK-OV-3 ovarian = tested on: SK-OV-3 ovarian
NCI-H226 lung = tested on: NCI-H226 lung
RXF 393 renal = tested on: RXF 393 renal
HCT-15 colon = tested on: HCT-15 colon
ACHN renal = tested on: ACHN renal
LOX IMVI melanoma = tested on: LOX IMVI melanoma
SK-MEL-28 melanoma = tested on: SK-MEL-28 melanoma

Row | Structure (SMILES) | GI50 (786-0 renal) | TGI (786-0 renal) [nM] | GI50 (SF-539 CNS) | TGI (SF-539 CNS) | GI50 (OVCAR-3 ovarian) | TGI (OVCAR-3 ovarian) | GI50 (SK-OV-3 ovarian) | TGI (SK-OV-3 ovarian) | GI50 (NCI-H226 lung) [nM] | TGI (NCI-H226 lung) [nM] | GI50 (RXF 393 renal) | TGI (RXF 393 renal) | GI50 (HCT-15 colon) | TGI (HCT-15 colon) | GI50 (ACHN renal) | TGI (ACHN renal) | GI50 (LOX IMVI melanoma) | TGI (LOX IMVI melanoma) | GI50 (SK-MEL-28 melanoma) | TGI (SK-MEL-28 melanoma)
1 | Oc1c(CN2CCC(N3CCOCC3)CC2)cc(Cc2cc(CN3CCC(N4CCOCC4)CC3)c(O)c3ncccc23)c2cccnc12 | 1070 nM | 17700 | 1110 nM | 2900 nM | 976 nM | 11900 nM | 758 nM | 8960 nM | 641 | 4750 | 3060 nM | 18700 nM | 633 nM | 26400 nM | 481 nM | 12900 nM | 466 nM | 4540 nM | 1400 nM | 22900 nM
2 | CCN(CC)CCCN(c1cc(OC)cc2nccnc12)S(=O)(=O)c1ccc(C)cc1 |  | > 100000 |  | > 100000 nM |  | > 100000 nM |  | > 100000 nM |  | > 100000 |  | > 100000 nM |  | > 100000 nM |  | > 100000 nM |  | > 100000 nM |  | > 100000 nM
3 | NC(=S)/N=C/c1c(O)c2ccccc2oc1=O |  | > 100000 |  | > 100000 nM |  | > 100000 nM |  | > 100000 nM |  | > 100000 |  | 86400 nM |  | > 100000 nM |  | > 100000 nM |  | > 100000 nM |  | > 100000 nM
4 | CC(C)C[C@@H](NC(=O)[C@@H](Cc1ccccc1)NC(=O)c1cnccn1)B1O[C@H]2[C@H](O)[C@@H](C(=O)NCCCC[C@@H]3NC(=O)[C@@H](Cc4ccccc4)NC(=O)[C@H](CC(=O)O)NC(=O)CNC(=O)[C@H](CCCN=C(N)N)NC3=O)O[C@@H](CN)[C@H]2O1 | 4.65 nM and 5 nM |  | 3.19 nM and 5 nM | 15 nM and 12.3 nM | 3.39 nM and 5 nM | 10.6 nM and 10.4 nM | 35.4 nM and 14.8 nM | 296 nM and 941 nM | 2.78 | 7.7 | 3.45 nM and < 5 nM | 13.5 nM and < 5 nM | 11.3 nM and 7.03 nM | 65.9 nM and 37.6 nM | 4.49 nM and 5 nM | 494 nM and 153 nM | 3.97 nM and 5 nM | 15.9 nM and 5.8 nM | 7.66 nM and 5 nM | 285 nM and 235 nM
5 | Cn1ncc(=S)[nH]c1=S |  | > 100000 |  | > 100000 nM |  | > 100000 nM |  | > 100000 nM |  | > 100000 |  | > 100000 nM |  | > 100000 nM |  | > 100000 nM |  | > 100000 nM |  | > 100000 nM
6 | N#CC1=C(N)Oc2cc3c(cc2C1c1cccs1)OCO3 (centres undefined) | 686 nM | > 68300 | 747 nM | 11200 nM | 236 nM | 644 nM | 575 nM | 8100 nM | 653 | > 100000 | 311 nM | 2700 nM | 486 nM | > 100000 nM | 3630 nM | > 100000 nM | 679 nM | > 61300 nM | 1120 nM | > 100000 nM
7 | COc1ccc(C(=O)Cn2c(C(=O)c3ccc(OC)cc3)nc3ccccc32)cc1 | 4540 nM | > 100000 | 2800 nM | > 100000 nM | 2030 nM | > 100000 nM | 2960 nM | > 100000 nM | > 28500 | > 100000 | 2070 nM | > 23200 nM | 1210 nM | > 100000 nM | 6580 nM | > 100000 nM | 6420 nM | > 100000 nM | 3000 nM | > 100000 nM
